The numbers were not newly measured in patent US6514993B1, “Serotonin 5-HT1A and dopamin D2 receptor ligands” (H. Lundbeck A/S, priority 1994, dated 2003), which cites them from elsewhere.

This series concerns the target T1, 5-HT1A receptors (Rattus norvegicus, UniProt P19327).
T1 sequence (P19327 1-422): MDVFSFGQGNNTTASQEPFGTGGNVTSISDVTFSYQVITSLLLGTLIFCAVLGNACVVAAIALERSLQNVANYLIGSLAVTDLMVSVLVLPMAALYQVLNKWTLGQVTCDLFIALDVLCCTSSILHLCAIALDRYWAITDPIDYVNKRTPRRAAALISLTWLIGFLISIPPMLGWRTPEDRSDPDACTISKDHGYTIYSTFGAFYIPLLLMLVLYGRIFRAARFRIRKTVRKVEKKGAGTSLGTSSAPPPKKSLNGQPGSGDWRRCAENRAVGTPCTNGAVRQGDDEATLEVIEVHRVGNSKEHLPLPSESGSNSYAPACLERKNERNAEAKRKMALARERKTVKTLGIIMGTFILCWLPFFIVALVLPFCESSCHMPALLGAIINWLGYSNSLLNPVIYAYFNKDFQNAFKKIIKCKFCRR
More on the design: antagonist effects of a test compound on 5-HT1A receptors in vivo; from tissue; host or cells: whole animal (rat), in vivo behavioural test. The following applies: partial 5-HT1A agonists; cited from earlier work.

For `O=C1CC2(CCCC2)CC(=O)N1CCCCN1CCN(c2ncccn2)CC1` [buspirone, 8-[4-[4-(2-pyrimidyl)-1-piperazinyl]butyl]-8-azaspiro[4,5]decane-7,9-dione], the “Inhibition of 5-MeO-DMT-induced 5-HT syndrome (general statement)” value was “inhibit the characteristic 5-HT syndrome produced by 5-MeO DMT”.
